Biological target: Tyrosine-protein kinase Lyn (Homo sapiens) (UniProt P07948)
Experiment: inhibitors of human LYN isoform B activity – biochemical, Z'-LYTE, FRET readout, dose response (AID 1671319)
Conditions: Z'-LYTE FRET kinase assay, recombinant LYN B

Chain of Tyrosine-protein kinase Lyn (Homo sapiens) (P07948 whole entry, looked up, canonical isoform): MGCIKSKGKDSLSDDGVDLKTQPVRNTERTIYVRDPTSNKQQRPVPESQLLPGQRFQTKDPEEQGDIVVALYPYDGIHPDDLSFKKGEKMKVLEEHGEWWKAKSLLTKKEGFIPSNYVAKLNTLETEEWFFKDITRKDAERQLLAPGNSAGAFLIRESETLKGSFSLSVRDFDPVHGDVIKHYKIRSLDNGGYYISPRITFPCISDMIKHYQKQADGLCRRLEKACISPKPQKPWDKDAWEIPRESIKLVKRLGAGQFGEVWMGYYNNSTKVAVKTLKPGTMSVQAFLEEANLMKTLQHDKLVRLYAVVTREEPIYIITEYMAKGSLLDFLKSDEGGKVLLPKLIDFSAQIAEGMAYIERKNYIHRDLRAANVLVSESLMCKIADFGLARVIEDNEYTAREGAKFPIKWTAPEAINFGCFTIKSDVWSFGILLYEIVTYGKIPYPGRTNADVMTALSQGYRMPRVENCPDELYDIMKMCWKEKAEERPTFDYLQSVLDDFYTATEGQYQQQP

IC50: 244 nM
Structure (SMILES): COc1cc2ncnc(Nc3cccc(Cl)c3)c2cc1OC
